Data from US20220062233A1 (The Board of Trustees of the Leland Stanford Junior …, priority 2018, published 2022).

Columns and labels:
M2-8 cells = assay: M2-8 Cell viability Assay; format: cell-based; details: at the concentration of 1000 nM
[1] = molecular target: T1, interaction between Supt4h and NGN (subunit of Supt5h) (Homo sapiens, UniProt O00267+P63272); assay: Split Gaussia luciferase complementation assay (M2-8 Luciferase); format: cell-based; details: M2-8 cells
T1 construct: expressed in transfected cells
Method: A. Split Gaussia Luciferase Complementation Assay […]
i: pNBR-X1-Supt4-Gluc1 and pNEBR-X1-NGN-Gluc2
The HA-Supt4h and Flag-NGN fragments are amplified by PCR using the plasmid pHA-Supt4h-YC and pFlag-NGN-YN and sub-cloned individually into pcDNA3.1-Gluc1 and pcDNA3.1-Gluc2 (described in “A highly sensitive protein-protein interaction assay based on Gaussia luciferase” published at Nat Methods. 2006 December; 3(12):977-9. Epub 2006 Nov. 12). Then HA-Supt4h-Gluc1 and Flag-NGN-Gluc2 are amplified by PCR and inserted to pNEBR-X1-Hygro (New England BioLabs), which contain RheoSwitch responsive element under the control of RheoSwitch ligand. […]
ii: pNEBR-X1-Supt4h-G1-NGN-G2
PCR products containing the sequence from 5XRE to polyA in pNEBR-X1-NGN-G2 are inserted to pNEBR-X1-Supt4h-G1 at Pcil site to generate Supt4h-G1 and NGN-G2 bidirectional under their own RheoSwitch responsive element and polyA in the same plasmid. […]
b. Stable Cloned Cell Line i: 293-R1 is a cloned cell line which is engineered to constitutively express RSL1 receptor/activator by transfecting HEK 293 cells with pNEBR-R1 plasmid (New England BioLabs) and selected with blasticidin. […]
ii: M2-8 is a cloned 293-R1 cell which can inducibly express pNEBR-X1-Supt4h-G1-NGN-G2 by addition of RSL1. Two point mutations ([…] and M110I) are introduced to the GL1 and GL2 for better stability according to “A high-throughput cell-based Gaussia luciferase reporter assay for identifying modulators of fibulin-3 secretion” published in J Biomol Screen. 2013 July; 18(6):647-58. The cell line is selected by hygromycin. […]
c. Cell Culture and Transfection Condition
All the HEK-293 cells and derivative clones are maintained in DMEM containing 10% FBS plus corresponding antibiotics (250 μg/ml hygromycin B, 10 μg/ml blasticidin or both) at 37° C., 5% CO2. All the transfections are done by using Lipofectamine 2000 (Invitrogen) according to the manufacturer's instructions. […]
d. Bioluminescence Assay from Cell Lysates
Plasmids harboring the Gluc1 and Gluc2 are co-transfected in a 1:1 ratio into 293-R1 cells plated on tissue culture treated 24-well plates using Lipofectamine 2000 according to the manufacturer's instructions. For stable M2-8 cells, the cells are directly plated into 96-well or 384-well white plates. Twenty-four hours later, RheoSwitch ligand with or without test compound is added to the cells for induction/drug treatment. After 24 hr, the cells are washed with PBS and the plate was stored at −20° C. overnight. Lysis buffer [30 mM Tris-HCl (pH 8.0) 5 mM NaCl, 0.1% Triton X-100] with 10 μg/ml native coelenterazine (Nanolight Technology) is then added to the cells at room temperature for one hour in the dark. After shaking for about 1 min, 40 μl of cell lysate are transferred to a white 96-well plate. For M2-8 in white micro plate, no transfer is needed. Signal intensities (integrated 100 ms) were read on Tecan Infinite M200 or M1000.
The split Gaussia luciferase complementation assay measures the interaction between Sup4h and NGN. NGN is the subunit of Supt5h that binds to Supt4h.

mutant HTT [2] = assay: Mutant HTT assay in induced pluripotent stem cells (iPSC); format: cell-based, human; details: HD patient iPSCs, one day incubation, read-out: iPSC IC20 (nM) mHTT
Method: C. Mutant HTT Assay in Induced Pluripotent Stem Cells (iPSC) a. Cell Culturing and Compound Treatment
Huntington's disease patient iPSCs (ND50036 from NINDS) were detached into single cells by Accutase (25058CI from Corning), counted and plated on a 24-well plate coated with Matrigel (354277 from Corning) at density of 7,000 cells/well. After 48 hrs, compounds were added to the cell culture medium mTeSR1 (85850 from StemCell Technologies) and the cells were incubated for one day. The medium was then removed, and the cells were washed with PBS. After all liquid was removed, the plate was placed at −80° C. overnight. Lysis buffer [30 mM Tris-HCl (pH 8.0), 5 mM NaCl, 0.1% Triton X-100] with the complete proteinase inhibitor cocktail (5892791001 from Sigma-Aldrich) was then added to the cells. Cell samples were lysed on an orbital plate shaker at 4° C. at 700 rpm for 30 min. The supernatants from spinning (14 k rpm for 10 min) were collected. The protein concentrations were determined by BCA assay (23225 from Pierce, ThermoFisher). […]
b. Detection of Mutant HTT Protein
Equal amounts of protein lysate collected from each sample were added to a 96-well plate that had been coated with a human HTT specific monoclonal antibody. After washing away any unbound substances, a biotinylated anti-human mutant HTT specific detection antibody was added. Streptavidin-horseradish peroxidase was subsequently added, followed by TMB Substrate Solution, which yielded a blue product that turns yellow when the Stop Solution was added. The intensity of the color measured was in proportion to the amount of mutant HTT bound in the initial step. The mutant HTT values are then interpolated from a standard curve.

[3] = system: Huntington's disease patient iPSCs (ND50036); assay: iPSC viability at IC20; format: cell-based, human; details: at the concentration of IC20
[4] = system: Lymphoblastoid cells (GM14044); assay: LBC cell viability (Cell Titer-Glo); format: cell-based, human; details: at the concentration of IC20, 3-day compound treatment
Method: Cell viability was determined by Cell Titer-Glo reagent (Promega, PRG9243). After 3-day compound treatment, 15 μl of cell suspension was taken out from plate and incubated with 10 μl of CTG reagent. The values of reaction mixture were detected by Tecan.

wild-type HTT = assay: Wild-type HTT assay in lymphoblastoid cells (LBC), Western blot; format: cell-based, human; details: 3 days compound treatment, read-out: LBC IC20 (nM) wtHTT
Method: (§1) B. Mutant and Wild-Type HTT Assay in Lymphoblastoid Cells (LBC)
(§2) a. Cell Culturing and Compound Treatment
(§3) Lymphoblastoid cells derived from a Huntington's disease patient with 250 CAG repeats in the mutant HTT allele (GM14044 from Coriell Institute) were cultured in RPMI 1640 (Corning Cellgro, 10-040-CV) containing fetal bovine serum (Atlanta Biologicals, S11150). 4×10^5 cells were seeded on a 24-well plate and incubated with testing compound for 3 days. The cell suspension was then transferred to a 1.5 ml Eppendorf tube. Cells were collected by centrifugation and washed once with PBS. After all liquid was removed, the cell pellet was placed at −80° C. for at least 10 minutes. Lysis buffer [30 mM Tris-HCl (pH 8.0), 5 mM NaCl, 0.1% Triton X-100] with the proteinase inhibitor cocktail (P8340 from Sigma-Aldrich) was then added to the cells. Following centrifugation (14 k rpm for 15 min at 4° C.), the supernatant was collected. The protein concentrations were determined by BCA assay (Pierce, ThermoFisher).
(§4) Equal amounts of protein were loaded onto 4-12% gel (Invitrogen, WG1403A). After electrophoresis, the gels were transferred to nitrocellulose membranes by wet transfer at 72V for 3 hrs. […] The protein levels of mutant HTT, wild-type HTT, TBP, and tubulin were determined by immunoblotting with anti-polyQ specific antibody (clone MW1), anti-Huntingtin antibody (Abcam, ab45169), anti-TBP antibody (Sigma, T1827) and anti-alpha tubulin antibody (Sigma, T9026). Blots were imaged on a Li-Cor Odyssey infrared imager. The band intensities were determined by Li-Cor Odyssey software.

mutant HTT [5] = assay: Mutant HTT assay in lymphoblastoid cells (LBC), Western blot; format: cell-based, human; details: read-out: LBC IC20 (nM) mHTT, 3 days compound treatment
Method: as §1, §2, §3, §4

For `OC1(c2ccc(CN[C@@H]3CCCc4c3[nH]c3ccc(Br)nc43)s2)CC1` [Compound 70], the “M2-8 Cell viability” value (M2-8 cells) was “+ (cell viability is greater than 50% at the concentration of 1000 nM)”, the IC50 [1] was ≤ 100 nM and the IC20 (mutant HTT [2]; class symbols) was < 100 nM. For the same compound, the “iPSC viability at IC20” value [3] was “+ (cell viability is greater than 75% at the concentration of IC20)”.

`OC1(c2ccc(CN[C@@H]3CCCc4c3[nH]c3ccc(Br)cc43)cc2)CC1` [Compound 50, (R)-1-(4-(((6-bromo-2,3,4,9-tetrahydro-1H-carbazol-1-yl)amino)methyl)phenyl) cyclopropan-1-ol] was tested, and the “M2-8 Cell viability” value (M2-8 cells) was “+ (cell viability is greater than 50% at the concentration of 1000 nM)”, the IC50 [1] was ≤ 100 nM and the “LBC viability at IC20” value [4] was “* (cell viability is greater than 60% at the concentration of IC20)”. For the same compound, the IC20 (wild-type HTT) was > 500 nM, the IC20 (mutant HTT [2]; class symbols) was < 100 nM and the IC20 (mutant HTT [5]) was < 100 nM. The “iPSC viability at IC20” value [3] was “+ (cell viability is greater than 75% at the concentration of IC20)”.

For `OC1(c2ccc(CN[C@@H]3CCCc4c3[nH]c3ccc(Br)nc43)cc2)CC1` [Compound 71], the “M2-8 Cell viability” value (M2-8 cells) was “+ (cell viability is greater than 50% at the concentration of 1000 nM)”, the IC50 [1] was ≤ 100 nM and the IC20 (mutant HTT [2]; class symbols) was < 100 nM. For the same compound, the “iPSC viability at IC20” value [3] was “+ (cell viability is greater than 75% at the concentration of IC20)”.

For `Brc1ccc2[nH]c3c(c2c1)CCC[C@H]3NCc1ccccn1` [Compound 33, (R)-6-bromo-N-(pyridin-2-ylmethyl)-2,3,4,9-tetrahydro-1H-carbazol-1-amine], the “M2-8 Cell viability” value (M2-8 cells) was “+ (cell viability is greater than 50% at the concentration of 1000 nM)”, the IC50 [1] was 101 to 300 nM and the “LBC viability at IC20” value [4] was “* (cell viability is greater than 60% at the concentration of IC20)”. The IC20 (wild-type HTT) was > 1000 nM, the IC20 (mutant HTT [2]; numeric bounds) was > 100 nM and the IC20 (mutant HTT [5]) was 301 to 1000 nM.

In the case of `Brc1ccc2[nH]c3c(c2n1)CCC[C@H]3NCc1ccccc1` [Compound 69], the “M2-8 Cell viability” value (M2-8 cells) is reported as “+ (cell viability is greater than 50% at the concentration of 1000 nM)”, the IC50 [1] is reported as ≤ 100 nM and the IC20 (mutant HTT [2]; class symbols) is reported as < 100 nM. The “iPSC viability at IC20” value [3] was “+ (cell viability is greater than 75% at the concentration of IC20)”.

For `CC(C)(O)c1cccc(CN[C@@H]2CCCc3c2[nH]c2ccc(Br)cc32)c1` (single isomer, unassigned) [Compound 58], the “M2-8 Cell viability” value (M2-8 cells) was “+ (cell viability is greater than 50% at the concentration of 1000 nM)”, the IC50 [1] was 101 to 300 nM and the “LBC viability at IC20” value [4] was “* (cell viability is greater than 60% at the concentration of IC20)”. The IC20 (wild-type HTT) was > 1000 nM, the IC20 (mutant HTT [2]; numeric bounds) was > 100 nM and the IC20 (mutant HTT [5]) was 101 to 300 nM.

For `Brc1ccc2[nH]c3c(c2c1)CCC[C@H]3NCc1cccnc1` [Compound 32, (R)-6-bromo-N-(pyridin-3-ylmethyl)-2,3,4,9-tetrahydro-1H-carbazol-1-amine], the “M2-8 Cell viability” value (M2-8 cells) was “+ (cell viability is greater than 50% at the concentration of 1000 nM)”, the IC50 [1] was 101 to 300 nM and the “LBC viability at IC20” value [4] was “* (cell viability is greater than 60% at the concentration of IC20)”. For the same compound, the IC20 (wild-type HTT) was > 1000 nM, the IC20 (mutant HTT [2]; numeric bounds) was > 100 nM and the IC20 (mutant HTT [5]) was < 100 nM.

`C#Cc1ccc2[nH]c3c(c2c1)CCC[C@H]3NCc1ccccc1` [Compound 5, (R)—N-benzyl-6-ethynyl-2,3,4,9-tetrahydro-1H-carbazol-1-amine] was tested, and the “M2-8 Cell viability” value (M2-8 cells) was “+ (cell viability is greater than 50% at the concentration of 1000 nM)”, the IC50 [1] was ≤ 100 nM and the “LBC viability at IC20” value [4] was “* (cell viability is greater than 60% at the concentration of IC20)”. The IC20 (wild-type HTT) was > 1000 nM, the IC20 (mutant HTT [2]; numeric bounds) was > 100 nM and the IC20 (mutant HTT [5]) was < 100 nM.

`C=C(C)c1ccc(CN[C@@H]2CCCc3c2[nH]c2ccc(Br)cc32)s1` [Compound 68] was tested, and the “M2-8 Cell viability” value (M2-8 cells) was “+ (cell viability is greater than 50% at the concentration of 1000 nM)”, the IC50 [1] was ≤ 100 nM and the “LBC viability at IC20” value [4] was “* (cell viability is greater than 60% at the concentration of IC20)”. The IC20 (wild-type HTT) was > 1000 nM, the IC20 (mutant HTT [2]; numeric bounds) was > 100 nM and the IC20 (mutant HTT [5]) was 101 to 300 nM.

`COC(=O)c1cccc(CN[C@@H]2CCCc3c2[nH]c2ccc(Br)cc32)c1` (single isomer, unassigned) [Compound 59] was tested, and the “M2-8 Cell viability” value (M2-8 cells) was “+ (cell viability is greater than 50% at the concentration of 1000 nM)”, the IC50 [1] was 101 to 300 nM and the “LBC viability at IC20” value [4] was “* (cell viability is greater than 60% at the concentration of IC20)”. The IC20 (wild-type HTT) was > 1000 nM, the IC20 (mutant HTT [2]; numeric bounds) was > 100 nM and the IC20 (mutant HTT [5]) was 101 to 300 nM.

In the case of `Brc1ccc2[nH]c3c(c2c1)CCC[C@H]3NCc1cccc(I)c1` [Compound 41, (R)-6-bromo-N-(3-iodobenzyl)-2,3,4,9-tetrahydro-1H-carbazol-1-amine], the “M2-8 Cell viability” value (M2-8 cells) is reported as “+ (cell viability is greater than 50% at the concentration of 1000 nM)”, the IC50 [1] is reported as ≤ 100 nM and the “LBC viability at IC20” value [4] is reported as “* (cell viability is greater than 60% at the concentration of IC20)”. For the same compound, the IC20 (wild-type HTT) was > 1000 nM, the IC20 (mutant HTT [2]; numeric bounds) was > 100 nM and the IC20 (mutant HTT [5]) was 101 to 300 nM.
